These results are taken from PMC4205289, “Triptolide inhibits human immunodeficiency virus type 1 replication by promoting proteasomal degradation of Tat protein” (Retrovirology, 2014).

One experiment deals with T1, FLAG-Tat.
T1 construct: expressed in transfected cells; host or cells: HeLa
As to the kind of experiment: Proteasome inhibition rescue of Tat expression, Western blot, HeLa cells. The experiment is classed as cell-based, HIV-1 NL4-3. The method, then:
Figure 6 Triptolide reduces Tat protein stability by enhancing proteasomal degradation of Tat. (A) The effect of triptolide on Tat mRNA levels. HeLa cells were transfected with pEF1-Tat in the presence of increasing concentrations of triptolide. Cells were harvested 48 h post-transfection. The steady-state mRNA levels of Tat and GAPDH were examined using semi-quantitative reverse transcription PCR analysis. RT, reverse transcriptase. (B) The effect of triptolide on Tat protein degradation. HeLa cells were transfected with pEF1-FLAG-Tat in the presence of 5 nM triptolide or vehicle (DMSO). At 28 h post-transfection, cells were treated with 20 μg/mL of CHX to arrest protein synthesis. At 0, 1, 2, 3 h post-treatment, cells were harvested to determine protein expression levels using Western blot analysis. (C) The band intensities of FLAG-Tat in panel B were measured, and their natural log values were plotted as a function of time. Results were presented as the mean plus the standard deviations (n = 3). (D) Proteasome inhibition restores Tat protein expression. HeLa cells were transfected with pEF1-FLAG-Tat in the presence or absence of 5 nM triptolide. At 48 h post-transfection, cells were treated with 20 μM of MG132, and cultured for an additional 3 h before harvest. Protein expression levels were determined by Western blot analysis. TEXT PRINTED IN THE PICTURE: (C) DMSO: Half-lives: 2.0 h | (C) Triptolide: Half-lives: 0.4 h
Cells were washed with phosphate buffered saline (PBS) and lysed with radio immunoprecipitation assay lysis buffer supplemented with complete mini protease inhibitor cocktail (Roche) at 4°C for 1 h. Proteins from cell lysates were separated by SDS-PAGE and transferred to polyvinylidene difluoride membranes. After overnight incubation with primary antibodies at 4°C, each blot was probed with horseradish peroxidase-conjugated secondary antibody. Immunoreactive signals were detected with an enhanced chemiluminescence substrate (Thermo Scientific) using an AlphaEaseH FC Imaging System (Alpha Innotech Corporation).
A general note: In western blotting, separated proteins are transferred to a membrane and probed.

For the next experiment, the system named is HIV-1 NL4-3. As to the kind of experiment: Time-of-addition experiment in TZM-bl cells. The experiment is classed as cell-based. How it is done: TZM-bl cells seeded in 96-well plates (2 × 10^4 /well) were infected with HIV-1 NL4-3 (MOI = 1). The virus inoculum was removed after 1 h of infection. Test compounds were added at different time points after infection (0 h, 2 h, 4 h, 6 h, 8 h, and 10 h). Dextran sulfate was added at 10 μg/mL, zidovudine at 1 μM and triptolide at 5 nM. At 48 h post-infection, the virus replication level was determined by analyzing luciferase activity in the cells as described above.

The test system of a further experiment is HIV-1 proviral DNA. The experiment can be described thus: Nested PCR of integrated proviral DNA in infected Jurkat cells. The experiment is classed as cell-based. The settings on record: HIV-1 NL4-3 MOI 0.5, 12 h post-infection, 118-D-24 50 μM, flavopiridol 20 nM, triptolide 5 nM. How it is done: (§1) The effects of the test compounds on HIV-1 proviral DNA and mRNA synthesis were analyzed by PCR. Jurkat cells were grown in 24-well plates and infected with the HIV-1 NL4-3 strain at an MOI of 0.5, and then test compounds were added at the desired concentrations. After incubation for 12 h, genomic DNA and mRNA from the infected cells were isolated using a Genomic DNA Mini Preparation Kit (Beyotime, China) and TRIzol reagent (Invitrogen Life Technologies), respectively. Nested PCR was used for the amplification of integrated proviral DNA, as previously described. To determine viral mRNA expression levels, 1 μg of RNA was treated with RQ1 RNase-Free DNase (Promega) and reverse transcribed using M-MLV Reverse Transcriptase (Promega) and random primers (Promega). An aliquot of cDNA was used as template for amplification of the HIV-1 Gag region as described elsewhere. […]
(§2) All of the PCR products were visualized on a UV transilluminator in 2% agarose gels stained with ethidium bromide. In preliminary experiments, the exponential range of the PCR amplification curve was determined for all of the PCR products by varying the amount of input DNA and the number of PCR cycles. Based on these experiments, appropriate conditions were chosen to perform semi-quantitative PCRs.

For another experiment, the system named is HIV-1 mRNA. The experiment can be described thus: Reverse-transcription PCR of viral mRNA (Gag region) in infected Jurkat cells. The settings on record: HIV-1 NL4-3 MOI 0.5, 12 h post-infection, 118-D-24 50 μM, flavopiridol 20 nM, triptolide 5 nM. The experiment is classed as cell-based. How it is done: as §1, §2
Experiment [1] relates to HIV-1 molecular clone pNL4-3.Luc.R-E-. As to the kind of experiment: Transient gene expression assay, pNL4-3.Luc.R-E- transfected into Jurkat cells. The experiment is classed as cell-based. The note with it: 24 h, 118-D-24 50 μM, flavopiridol 20 nM, triptolide 0.2 ~ 5 nM. The method, then:
Figure 3 Triptolide inhibits HIV-1 transcription. (A) Time-of-addition analysis. TZM-bl cells were infected with HIV-1 (MOI = 0.5, strain NL4-3), and the virus inoculum was removed after 1 h of absorption. Test compounds (dextran sulfate at 10 μg/mL, zidovudine at 1 μM and triptolide at 5 nM) were added at the indicated time points after infection. Reporter signal was monitored at 48 h post-infection as a measure of viral replication. (B) The effect of triptolide on HIV-1 proviral DNA formation. Jurkat cells were infected with HIV-1 (MOI = 0.5, strain NL4-3) in the presence of the test compounds (INI 118-D-24, 50 μM; flavopiridol, 20 nM; and triptolide, 5 nM). Proviral DNA synthesis was determined by nested PCR analysis at 12 h post-infection. (C) The effect of triptolide on HIV-1 mRNA synthesis. Jurkat cells were infected with HIV-1(MOI = 0.5, strain NL4-3) in the presence of the test compounds (INI 118-D-24, 50 μM; flavopiridol, 20 nM; triptolide, 5 nM). Viral mRNA (the Gag region) content was determined by reverse-transcription PCR analysis 12 h post-infection. (D) Inhibition of luciferase expression encoded in pNL4-3.Luc.R-E- by tiptolide. […]
To further confirm that triptolide interferes with HIV-1 transcription, a transient gene expression assay was performed. […] At 24 h after transfection, viral gene transcription (indicated by luciferase activity) was determined. […]

For MG132, the “increase of Tat level” value with FLAG-Tat (20 μM MG132 for 3 h, without triptolide, relative to DMSO control) is recorded as 30%. In addition, in the experiment with FLAG-Tat (20 μM MG132 for 3 h in the presence of 5 nM triptolide), the “restoration of Tat protein, increase as % of Tat level in DMSO control” value is reported as 30%.
For `Cc1cn([C@H]2C[C@H](N=[N+]=[N-])[C@@H](CO)O2)c(=O)[nH]c1=O` [zidovudine], the inhibition at 1 µM with HIV-1 NL4-3 (Human immunodeficiency virus 1, NL43, TZM-bl, read-out: inhibitory activity retained) came out at 71%.
For the compound `CN1CC[C@H](c2c(O)cc(O)c3c(=O)cc(-c4ccccc4Cl)oc23)[C@H](O)C1` [flavopiridol, reference compound], the “effect on proviral DNA formation (integration)” value with HIV-1 proviral DNA was “no effect on virus integration”. In addition, the “effect on viral mRNA synthesis” value with HIV-1 mRNA is “repress viral mRNA synthesis”. Further, in experiment [1], the “effect on luciferase expression from transfected pNL4-3.Luc.R-E-” value is reported as “significantly reduced luciferase expression”.
For Dextran sulfate sodium salt, in the experiment with HIV-1 NL4-3 (dextran sulfate at 10 μg/mL, luciferase at 48 h), the time-of-addition inhibition profile result was “dramatic early loss in activity”.
